Measurements from publication PMC10449418, “Adapting antibacterial display to identify serum-active macrocyclic peptide antibiotics” (PNAS Nexus, 2023).
No end group written: not given here.

How the values were obtained:
E. coli 25922 [1] = assay: MBC in 100% human serum (HS); type: cell-based, Escherichia coli
Source text: Minimum inhibitory concentration (MIC) and minimum bactericidal concentration (MBC) assays are standard methods used to first examine antimicrobial potential. These assays are often performed against lab strains of bacteria grown in Mueller–Hinton (MH) media which is not representative of conditions found in the human body during infection. […] W3110 is a K12-derived strain and cannot grow in HS and lacks O-antigen on its cell surface in contrast to 25922. MBCs were used instead of MICs because HS was opaque, making bacterial growth difficult to observe by sight. We chose three cationic AMPs previously discovered using SLAY and four natural cationic AMPs, each with α-helical or β-hairpin secondary structure ([18–24]) (Table S1).

E. coli 25922 [2] = assay: PI uptake (outer and inner membrane permeabilization) assay; type: cell-based, Escherichia coli; settings: 30 min of treatment, PBS + 50 mM glucose, 37°C, n = 3
Source text: (§1) First, we performed two fluorescent membrane disruption assays using 1-N-phenylnaphthylamine (NPN) and propidium iodide (PI). Normally the outer membrane excludes hydrophobic molecules such as NPN, but when damaged, NPN can bind hydrophobic fatty acids within the membrane and fluoresce. PI fluoresces upon DNA binding but can only gain access to the cytoplasm if both the outer and inner membranes have been permeabilized. Antibiotics tested retained antimicrobial activity under the assay conditions used (Fig. S3A).
PI uptake was measured for E. coli 25922 as previously described ([20]). Briefly, single colonies from overnight growth on LB were inoculated into MH broth and grown to mid-log phase. Cells were then washed twice with PBS + 50 mM glucose and resuspended to an OD = 0.1 in PBS + 50 mM glucose. PI was added at a concentration of 10 µg/ml, and 50 µl of the PI cell mixture was quickly added to a preprepared 96-well plate (NUNC black-walled clear bottom plate) that contained 50 µl of various peptide concentrations. The plate was then allowed to incubate for 30 min in the dark at 37°C and was then read using the Biotek Synergy LX plate reader with the fluorescence red filter cube. Triplicate samples were normalized to nontreated wells and presented as a mean ± 1 SD (n = 3).

E. coli 25922 [3] = assay: NPN outer membrane disruption assay; type: cell-based, Escherichia coli; settings: 30 min of treatment, PBS, various concentrations, n = 3
Source text: as §1
A culture of E. coli 25922 was grown overnight in liquid media at 37°C. The following day, it was back diluted 1:25 in LB media and grown at 37°C until an OD600 of 0.5. The culture was then pelleted at 1,000 g, washed once with PBS, and resuspended to a final concentration of OD600 0.5. […] Each sample was loaded in triplicate into a 96-well optical-bottom plate and serially diluted two-fold with final volumes of 50 µl in each well. Fifty microliters of the 40 µM NPN was then added to each well, followed by 100 µl of the bacterial cell suspension. After 30 min, the plate was transferred to a BioTek Synergy LX multimode reader for fluorescent measurements. Triplicate samples were normalized to nontreated wells and presented as a mean ± 1 SD (n = 3).

G. mellonella larvae = assay: LD50 in G. mellonella larvae; type: in vivo, Galleria mellonella; settings: single injection of a 100-mg/kg dose, death after 4 days, n = 10
Protocol: Live G. mellonella larvae were purchased from DBDPet. Larvae appearing fully healthy (no apparent melanization) and weighing between 200 and 300 mg were used for survival assays. Larvae were first injected into their second left proleg with 10 µl of PBS or PBS containing 1 × 10^6E. coli 25922 cells grown to an OD of 0.5 and washed in PBS. Injections were performed using a Hamilton 250-µl pipet equipped with an autodispenser and 30-gauge BD needle. […] Larvae groups were then incubated at 37°C for 72 h and observed for death. Larvae were determined to be dead if they were unable to right themselves after being placed on their back. Significance was determined by comparing Kaplan–Meier survival curves to untreated using a log-rank test (n ≥ 13 per sample).

E. coli 25922 [4] = assay: MIC (growth inhibition) in MH media; type: cell-based, Escherichia coli; settings: 37°C, 18–24 h, examined by eye, median of three replicates

Row | Compound | serum activity (MBC in HS), in words (E. coli 25922 [1]) | PI uptake (outer and inner membrane permeabilization) (E. coli 25922 [2]) | NPN fluorescence (outer membrane permeation) (E. coli 25922 [3]) | LD50 for G. mellonella larvae (G. mellonella larvae) | Antibiotic activity against E. coli 25922: MIC (E. coli 25922 [4]) [µg/mL]
1 | CC(C)C[C@H](NC(=O)[C@H](CCCNC(=N)N)NC(=O)CNC(=O)CNC(=O)[C@@H](N)CCCNC(=N)N)C(=O)N[C@H]1CSSC[C@@H](C(=O)N[C@H](C(=O)NCC(=O)N[C@@H](CCCNC(=N)N)C(N)=O)C(C)C)NC(=O)[C@H](C(C)C)NC(=O)[C@@H]2CSSC[C@H](NC(=O)[C@H](Cc3ccc(O)cc3)NC1=O)C(=O)N[C@@H](CCCNC(=N)N)C(=O)N[C@@H](CCCNC(=N)N)C(=O)N[C@@H](CCCNC(=N)N)C(=O)N[C@@H](Cc1ccccc1)C(=O)N2 [Protegrin-1] | retained the most activity in HS relative to MH | strong fluorescence of both NPN and PI | strong fluorescence of both NPN and PI | over 100 mg/kg | –
2 | KWCFRVCYRGICYRRCR-NH2 (disulfide (positions not given here)) [Tachyplesin-1, natural β-AMP] | retained the most activity in HS relative to MH | – | – | – | –
3 | Kanamycin | – | no NPN fluorescence or PI uptake | no NPN fluorescence or PI uptake | – | 4
